Source: paper PMC8179156, “Retrograde sulfur flow from glucosinolates to cysteine in Arabidopsis thaliana” (Proceedings of the National Academy of Sciences of the …, 2021)

How the values were obtained:
Assay type in all cases: biochemical
[1] = biological target: T1, AtBGLU28-His6 (Arabidopsis thaliana, UniProt Q4V3B3); experiment: D-glucose release, extract of expressing N. benthamiana leaves; conditions: crude extract; His6-GFP control at background
T1 construct: gene BGLU28; C-terminal His6 tag; transient expression in Nicotiana benthamiana leaves; crude protein extract
T1 sequence (Q4V3B3 22-582): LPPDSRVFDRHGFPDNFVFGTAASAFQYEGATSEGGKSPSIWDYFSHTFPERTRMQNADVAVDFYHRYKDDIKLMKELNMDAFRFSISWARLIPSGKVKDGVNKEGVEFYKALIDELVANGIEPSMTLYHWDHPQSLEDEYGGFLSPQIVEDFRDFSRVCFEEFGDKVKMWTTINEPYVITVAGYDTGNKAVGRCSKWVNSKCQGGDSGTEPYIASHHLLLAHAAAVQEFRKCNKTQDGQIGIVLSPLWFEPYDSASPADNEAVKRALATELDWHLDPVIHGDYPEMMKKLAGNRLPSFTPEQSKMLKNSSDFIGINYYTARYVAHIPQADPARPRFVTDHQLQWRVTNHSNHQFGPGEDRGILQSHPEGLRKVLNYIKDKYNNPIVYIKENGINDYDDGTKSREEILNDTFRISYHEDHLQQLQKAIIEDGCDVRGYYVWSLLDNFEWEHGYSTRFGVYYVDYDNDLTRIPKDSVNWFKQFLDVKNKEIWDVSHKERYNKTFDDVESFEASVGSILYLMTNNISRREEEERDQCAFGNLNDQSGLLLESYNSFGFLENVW

[2] = biological target: T2, AtTGG1-His6 (Arabidopsis thaliana, UniProt P37702); experiment: as above; conditions: crude extract; His6-GFP control at background
T2 construct: gene TGG1; His6 tag (printed AtTGG1-His6); transient expression in Nicotiana benthamiana leaves; crude protein extract
T2 sequence (P37702 20-541): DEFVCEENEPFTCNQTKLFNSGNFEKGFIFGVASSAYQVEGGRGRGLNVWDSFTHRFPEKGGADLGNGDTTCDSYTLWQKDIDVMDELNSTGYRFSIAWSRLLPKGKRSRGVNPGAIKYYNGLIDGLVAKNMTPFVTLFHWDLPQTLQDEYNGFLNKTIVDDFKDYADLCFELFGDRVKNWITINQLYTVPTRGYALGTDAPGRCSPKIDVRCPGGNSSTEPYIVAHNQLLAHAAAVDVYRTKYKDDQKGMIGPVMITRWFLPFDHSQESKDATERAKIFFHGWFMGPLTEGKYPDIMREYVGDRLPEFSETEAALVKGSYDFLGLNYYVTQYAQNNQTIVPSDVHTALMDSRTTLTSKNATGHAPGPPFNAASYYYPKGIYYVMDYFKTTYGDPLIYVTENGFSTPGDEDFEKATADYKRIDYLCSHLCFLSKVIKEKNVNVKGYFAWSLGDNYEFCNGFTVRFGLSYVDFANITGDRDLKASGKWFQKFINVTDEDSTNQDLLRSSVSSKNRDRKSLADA

[3] = biological target: T3, AtOXP1 (Arabidopsis thaliana, UniProt Q9FIZ7); experiment: Glu production in crude seedling extract, WT versus oxp1-1; conditions: native crude extract; stereochemistry of 5OP not given
T3 construct: gene OXP1; native enzyme in crude protein extract of 14-d-old seedlings; assigned by comparison with oxp1-1 mutant
T3 sequence (Q9FIZ7 1-1266): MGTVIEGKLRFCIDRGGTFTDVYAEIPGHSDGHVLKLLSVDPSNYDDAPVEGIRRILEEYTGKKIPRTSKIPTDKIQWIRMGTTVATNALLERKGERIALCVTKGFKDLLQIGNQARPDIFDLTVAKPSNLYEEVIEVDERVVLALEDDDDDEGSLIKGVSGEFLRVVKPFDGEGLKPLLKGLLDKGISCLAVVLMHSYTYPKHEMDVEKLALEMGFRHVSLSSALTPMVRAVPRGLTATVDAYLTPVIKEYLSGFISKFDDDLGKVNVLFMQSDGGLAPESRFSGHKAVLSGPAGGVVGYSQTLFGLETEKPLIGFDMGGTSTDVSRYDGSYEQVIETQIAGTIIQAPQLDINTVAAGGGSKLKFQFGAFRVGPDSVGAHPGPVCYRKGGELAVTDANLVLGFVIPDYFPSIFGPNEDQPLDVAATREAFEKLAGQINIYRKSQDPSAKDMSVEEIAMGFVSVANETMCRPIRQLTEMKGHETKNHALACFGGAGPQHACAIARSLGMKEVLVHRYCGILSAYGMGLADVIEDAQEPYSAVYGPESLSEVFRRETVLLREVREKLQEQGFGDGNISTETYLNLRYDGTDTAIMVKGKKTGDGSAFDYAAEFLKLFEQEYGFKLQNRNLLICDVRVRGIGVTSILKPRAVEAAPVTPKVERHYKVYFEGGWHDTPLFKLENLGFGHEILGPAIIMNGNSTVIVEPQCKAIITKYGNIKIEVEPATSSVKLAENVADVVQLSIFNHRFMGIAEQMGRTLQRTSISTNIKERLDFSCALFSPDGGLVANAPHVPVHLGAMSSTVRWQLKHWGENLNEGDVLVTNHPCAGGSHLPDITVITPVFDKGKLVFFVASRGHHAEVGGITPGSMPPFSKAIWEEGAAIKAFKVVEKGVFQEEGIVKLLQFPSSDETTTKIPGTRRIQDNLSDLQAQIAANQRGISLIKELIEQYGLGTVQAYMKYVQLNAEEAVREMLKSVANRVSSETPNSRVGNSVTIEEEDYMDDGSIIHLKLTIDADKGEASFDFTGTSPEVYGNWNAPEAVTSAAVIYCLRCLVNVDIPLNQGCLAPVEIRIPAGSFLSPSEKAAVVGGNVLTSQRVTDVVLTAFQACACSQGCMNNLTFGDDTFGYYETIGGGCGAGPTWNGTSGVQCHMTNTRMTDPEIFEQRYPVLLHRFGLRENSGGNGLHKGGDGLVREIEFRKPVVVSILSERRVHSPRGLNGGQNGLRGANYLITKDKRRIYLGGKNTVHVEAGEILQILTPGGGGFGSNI

[4] = biological target: T3, AtOXP1; experiment: Cys production in crude seedling extract, WT versus oxp1-1; conditions: native crude extract; stereochemistry of pCys not given

Compound | D-glucose release, extract of expressing N. benthamiana leaves [1] | D-glucose release, extract of expressing N. benthamiana leaves [2] | Glu production in crude seedling extract, WT versus oxp1-1 [3] | Cys production in crude seedling extract, WT versus oxp1-1 [4]
CSCCCC/C(=N/OS(=O)(=O)O)S[C@@H]1O[C@H](CO)[C@@H](O)[C@H](O)[C@H]1O [4MTB, 4-Methylthio-n-butyl glucosinolate] | exhibited higher rates of hydrolysis against 4MTB, benzyl glucosinolate, and PhE | the extract containing AtTGG1-His6 hydrolyzed all the tested GLs at similar rates | – | –
O=C1CC[C@@H](C(=O)O)N1 [5OP, 5-oxoproline] | – | – | lower rate of Cys production than the WT as observed for the Glu production from 5OP | –
O=S(=O)(O)O/N=C(/CCc1ccccc1)S[C@@H]1O[C@H](CO)[C@@H](O)[C@H](O)[C@H]1O [PhE, 2-Phenylethyl glucosinolate] | exhibited higher rates of hydrolysis against 4MTB, benzyl glucosinolate, and PhE | the extract containing AtTGG1-His6 hydrolyzed all the tested GLs at similar rates | – | –
O=C1N[C@H](C(=O)O)CS1 [pCys, 1,3-thiazolidin-2-one-4-carboxylic acid] | – | – | – | supporting that AtOXP1 can hydrolyze pCys, as reported for OPases in other organisms
